# Results reported in patent US12077503B2, “Substituted cyclic amides and their use as herbicides” (FMC CORPORATION, priority 2015, dated 2024).
# Experiments:
# Type in all cases: in vivo
# corn (Zea mays) [1] = assay: Test G Post-Emergence Protocol; conditions: Zea mays, post-emergence, 312 h, read-out: Corn damage rating; for plant injury at 15.625 g/ha: 15.625 g ai/ha, evaluated after 13 days (100=total damage to plant; 0=no damage to plant); for plant injury at 62.5 g/ha: 62.5 g ai/ha; for plant injury at 62.5 g/ha / plant injury at 250 g/ha: evaluated after 13 days, 100=total damage to plant, 0=no damage to plant; for plant injury at 250 g/ha: 250 g ai/ha
# Procedure, shortened: (§1)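 Seedlings grown 8 days in soil in a glasshouse (24/16 °C day/night, 14 h light, 65% humidity) were sprayed post-emergence with compound in acetone/water 50:50 plus 0.5% Tween 20 at 15.625, 62.5 or 250 g/ha. Damage was scored after 13 days on a 0–100 scale (100 = total damage).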
# [2] = tested on: velvetleaf (Abutilon theophrasti); assay: Test G Post-Emergence Protocol; conditions: Abutilon theophrasti, post-emergence, 312 h, read-out: Velvetleaf damage rating; for pest or weed control at 15.625 g/ha: 15.625 g ai/ha, evaluated after 13 days (100=total damage to plant; 0=no damage to plant); for pest or weed control at 62.5 g/ha: 62.5 g ai/ha; for pest or weed control at 62.5 g/ha / pest or weed control at 250 g/ha: evaluated after 13 days, 100=total damage to plant, 0=no damage to plant; for pest or weed control at 250 g/ha: 250 g ai/ha
# Procedure, shortened: as §1
# [3] = tested on: giant foxtail (Setaria faberi); assay: Test G Post-Emergence Protocol; conditions: Setaria faberi, post-emergence, 312 h, read-out: Foxtail, Giant damage rating; for pest or weed control at 15.625 g/ha: 15.625 g ai/ha, evaluated after 13 days (100=total damage to plant; 0=no damage to plant); for pest or weed control at 62.5 g/ha: 62.5 g ai/ha; for pest or weed control at 62.5 g/ha / pest or weed control at 250 g/ha: evaluated after 13 days, 100=total damage to plant, 0=no damage to plant; for pest or weed control at 250 g/ha: 250 g ai/ha
# Procedure, shortened: as §1
# [4] = tested on: barnyardgrass (Echinochloa crus-galli); assay: Test G Post-Emergence Protocol; conditions: Echinochloa crus-galli, post-emergence, 312 h, read-out: Barnyardgrass damage rating; for pest or weed control at 15.625 g/ha: 15.625 g ai/ha, evaluated after 13 days (100=total damage to plant; 0=no damage to plant); for pest or weed control at 62.5 g/ha: 62.5 g ai/ha; for pest or weed control at 62.5 g/ha / pest or weed control at 250 g/ha: evaluated after 13 days, 100=total damage to plant, 0=no damage to plant; for pest or weed control at 250 g/ha: 250 g ai/ha
# Procedure, shortened: as §1
# [5] = tested on: ivy-leaved morning glory (Ipomoea hederacea); assay: Test G Post-Emergence Protocol; conditions: Ipomoea, post-emergence, 312 h, read-out: Morningglory, Ivy-leaved damage rating; for pest or weed control at 15.625 g/ha: 15.625 g ai/ha, evaluated after 13 days (100=total damage to plant; 0=no damage to plant); for pest or weed control at 62.5 g/ha: 62.5 g ai/ha; for pest or weed control at 62.5 g/ha / pest or weed control at 250 g/ha: evaluated after 13 days, 100=total damage to plant, 0=no damage to plant; for pest or weed control at 250 g/ha: 250 g ai/ha
# Procedure, shortened: as §1
# [6] = tested on: redroot pigweed (Amaranthus retroflexus); assay: Test G Post-Emergence Protocol; conditions: Amaranthus retroflexus, post-emergence, 312 h, read-out: Pigweed, Redroot damage rating; for pest or weed control at 15.625 g/ha: 15.625 g ai/ha, evaluated after 13 days (100=total damage to plant; 0=no damage to plant); for pest or weed control at 62.5 g/ha: 62.5 g ai/ha; for pest or weed control at 62.5 g/ha / pest or weed control at 250 g/ha: evaluated after 13 days, 100=total damage to plant, 0=no damage to plant; for pest or weed control at 250 g/ha: 250 g ai/ha
# Procedure, shortened: as §1
# corn (Zea mays) [7] = assay: Test G Pre-Emergence Protocol; conditions: Zea mays, pre-emergence, 312 h, evaluated after 13 days; for plant injury at 15.625 g/ha: 15.625 g ai/ha; for plant injury at 15.625 g/ha / plant injury at 250 g/ha: read-out: Corn damage rating (100=total damage to plant; 0=no damage to plant); for plant injury at 62.5 g/ha: 62.5 g ai/ha, 100=total damage to plant, 0=no damage to plant, read-out: Corn damage rating; for plant injury at 250 g/ha: 250 g ai/ha
# Procedure, shortened: (§2)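 Glasshouse pre-emergence test: soil-sown seeds, sprayed after 1 d at 15.625, 62.5 or 250 g/ha. Conditions 24/16° C day/night, 14 h light, 65% humidity, watering twice daily. Rating 13 d post-spray (100 = total damage).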
# [8] = tested on: velvetleaf (Abutilon theophrasti); assay: Test G Pre-Emergence Protocol; conditions: Abutilon theophrasti, pre-emergence, 312 h, evaluated after 13 days; for pest or weed control at 15.625 g/ha: 15.625 g ai/ha; for pest or weed control at 15.625 g/ha / pest or weed control at 250 g/ha: read-out: Velvetleaf damage rating (100=total damage to plant; 0=no damage to plant); for pest or weed control at 62.5 g/ha: 62.5 g ai/ha, 100=total damage to plant, 0=no damage to plant, read-out: Velvetleaf damage rating; for pest or weed control at 250 g/ha: 250 g ai/ha
# Procedure, shortened: as §2
# [9] = tested on: giant foxtail (Setaria faberi); assay: Test G Pre-Emergence Protocol; conditions: Setaria faberi, pre-emergence, 312 h, evaluated after 13 days; for pest or weed control at 15.625 g/ha: 15.625 g ai/ha; for pest or weed control at 15.625 g/ha / pest or weed control at 250 g/ha: read-out: Foxtail, Giant damage rating (100=total damage to plant; 0=no damage to plant); for pest or weed control at 62.5 g/ha: 62.5 g ai/ha, 100=total damage to plant, 0=no damage to plant, read-out: Foxtail, Giant damage rating; for pest or weed control at 250 g/ha: 250 g ai/ha
# Procedure, shortened: as §2
# [10] = tested on: barnyardgrass (Echinochloa crus-galli); assay: Test G Pre-Emergence Protocol; conditions: Echinochloa crus-galli, pre-emergence, 312 h, evaluated after 13 days; for pest or weed control at 15.625 g/ha: 15.625 g ai/ha; for pest or weed control at 15.625 g/ha / pest or weed control at 250 g/ha: read-out: Barnyardgrass damage rating (100=total damage to plant; 0=no damage to plant); for pest or weed control at 62.5 g/ha: 62.5 g ai/ha, 100=total damage to plant, 0=no damage to plant, read-out: Barnyardgrass damage rating; for pest or weed control at 250 g/ha: 250 g ai/ha
# Procedure, shortened: as §2
# [11] = tested on: ivy-leaved morning glory (Ipomoea hederacea); assay: Test G Pre-Emergence Protocol; conditions: Ipomoea, pre-emergence, 312 h, evaluated after 13 days; for pest or weed control at 15.625 g/ha: 15.625 g ai/ha; for pest or weed control at 15.625 g/ha / pest or weed control at 250 g/ha: read-out: Morningglory, Ivy-leaved damage rating (100=total damage to plant; 0=no damage to plant); for pest or weed control at 62.5 g/ha: 62.5 g ai/ha, 100=total damage to plant, 0=no damage to plant, read-out: Morningglory, Ivy-leaved damage rating; for pest or weed control at 250 g/ha: 250 g ai/ha
# Procedure, shortened: as §2
# [12] = tested on: redroot pigweed (Amaranthus retroflexus); assay: Test G Pre-Emergence Protocol; conditions: Amaranthus retroflexus, pre-emergence, 312 h, evaluated after 13 days; for pest or weed control at 15.625 g/ha: 15.625 g ai/ha; for pest or weed control at 15.625 g/ha / pest or weed control at 250 g/ha: read-out: Pigweed, Redroot damage rating (100=total damage to plant; 0=no damage to plant); for pest or weed control at 62.5 g/ha: 62.5 g ai/ha, 100=total damage to plant, 0=no damage to plant, read-out: Pigweed, Redroot damage rating; for pest or weed control at 250 g/ha: 250 g ai/ha
# Procedure, shortened: as §2
Compound,plant injury at 15.625 g/ha (corn (Zea mays) [1]) [%],plant injury at 62.5 g/ha (corn (Zea mays) [1]) [%],plant injury at 250 g/ha (corn (Zea mays) [1]) [%],pest or weed control at 15.625 g/ha [2] [%],pest or weed control at 62.5 g/ha [2] [%],pest or weed control at 250 g/ha [2] [%],pest or weed control at 15.625 g/ha [3] [%],pest or weed control at 62.5 g/ha [3] [%],pest or weed control at 250 g/ha [3] [%],pest or weed control at 15.625 g/ha [4] [%],pest or weed control at 62.5 g/ha [4] [%],pest or weed control at 250 g/ha [4] [%],pest or weed control at 15.625 g/ha [5] [%],pest or weed control at 62.5 g/ha [5] [%],pest or weed control at 250 g/ha [5] [%],pest or weed control at 15.625 g/ha [6] [%],pest or weed control at 62.5 g/ha [6] [%],pest or weed control at 250 g/ha [6] [%],plant injury at 15.625 g/ha (corn (Zea mays) [7]) [%],plant injury at 62.5 g/ha (corn (Zea mays) [7]) [%],also measured
CCOc1ccc([C@@H]2CN(C)C(=O)[C@H]2C(=O)Nc2cccc(F)c2C)cc1Cl (racemic) [Compound 1803],0,0,0,0,0,0,20,70,80,0,0,70,0,10,10,0,0,20,0,0,plant injury at 250 g/ha (corn (Zea mays) [7]): 30%; pest or weed control at 15.625 g/ha [8]: 10%; pest or weed control at 62.5 g/ha [8]: 0%; pest or weed control at 250 g/ha [8]: 20%; pest or weed control at 15.625 g/ha [9]: 70%; pest or weed control at 62.5 g/ha [9]: 90%; pest or weed control at 250 g/ha [9]: 90%; pest or weed control at 15.625 g/ha [10]: 20%; pest or weed control at 62.5 g/ha [10]: 70%; pest or weed control at 250 g/ha [10]: 90%; pest or weed control at 15.625 g/ha [11]: 0%; pest or weed control at 62.5 g/ha [11]: 0%; pest or weed control at 250 g/ha [11]: 0%; pest or weed control at 15.625 g/ha [12]: 30%; pest or weed control at 62.5 g/ha [12]: 0%; pest or weed control at 250 g/ha [12]: 40%
COc1cc(Cl)cc(C2CN(C)C(=O)C2C(=O)Nc2cccc(F)c2F)c1 (stereo not drawn) [Compound 1690],10,70,80,0,20,40,80,80,90,70,80,90,20,70,60,0,20,40,0,20,plant injury at 250 g/ha (corn (Zea mays) [7]): 70%; pest or weed control at 15.625 g/ha [8]: 0%; pest or weed control at 62.5 g/ha [8]: 0%; pest or weed control at 250 g/ha [8]: 30%; pest or weed control at 15.625 g/ha [9]: 70%; pest or weed control at 62.5 g/ha [9]: 80%; pest or weed control at 250 g/ha [9]: 90%; pest or weed control at 15.625 g/ha [10]: 50%; pest or weed control at 62.5 g/ha [10]: 80%; pest or weed control at 250 g/ha [10]: 90%; pest or weed control at 15.625 g/ha [11]: 0%; pest or weed control at 62.5 g/ha [11]: 0%; pest or weed control at 250 g/ha [11]: 0%; pest or weed control at 15.625 g/ha [12]: 0%; pest or weed control at 62.5 g/ha [12]: 0%; pest or weed control at 250 g/ha [12]: 20%
